{"source": "patent US20050013753A1", "about": "“Heat-transfer systems” (priority 2003, published 2005)", "origin": "cited, not measured here", "key": {"mouse": {"tested_on": "mouse", "conditions": "in vivo mouse"}, "[1]": {"conditions": "animal data; DuPont MSDS"}, "[2]": {"conditions": "DuPont MSDS"}, "rats [3]": {"tested_on": "rats"}, "mammalian cells [4]": {"tested_on": "mammalian cells", "conditions": "in vitro"}, "rats [5]": {"tested_on": "rats", "conditions": "in rats, DuPont MSDS"}, "rats [6]": {"tested_on": "rats", "conditions": "repeated inhalation exposure"}, "[7]": {"conditions": "in water; DuPont MSDS"}, "rats [8]": {"tested_on": "rats", "conditions": "in rats; DuPont MSDS"}, "[9]": {"conditions": "animal data; DuPont MSDS", "remark": "listed apart in the source"}, "bacterial cells": {"tested_on": "bacterial cells", "conditions": "in vitro"}, "mammalian cells [10]": {"tested_on": "mammalian cells"}, "[11]": {"conditions": "animal data; DuPont MSDS", "remark": "listed apart in the source"}, "[12]": {"conditions": "animal data"}, "rabbits": {"tested_on": "rabbits", "conditions": "in rabbits; DuPont MSDS"}}, "note": "Read-outs that look alike come from different tables or passages of the source."}
{"smiles": "OCCCO", "note": "[1,3-Propanediol, 1,3-propanediol]", "values": [{"measurement": "Micronucleus assay result", "setting": "mouse", "result": "negative"}, {"measurement": "Skin sensitization", "setting": "[1]", "result": "not a skin sensitizer."}, {"measurement": "Chemical Stability", "setting": "[2]", "result": "Chemical Stability: Stable at normal temperatures and storage conditions."}, {"measurement": "Adverse effects to sperm and reproductive organs", "setting": "rats [3]; oral repeated dose study in rats", "result": "no adverse effects to sperm and reproductive organs were observed"}, {"measurement": "Changes in clinical pathology, pathology (including sperm analyses), or in-life measurements", "setting": "rats [3]; rats, repeated oral gavage", "result": "no toxicologically important changes"}, {"measurement": "NOEL", "setting": "rats [3]; rats, repeated oral gavage, highest dose tested", "result": 1000, "unit": "mg/kg/day"}, {"measurement": "Mutagenicity", "setting": "mammalian cells [4]", "result": "not mutagenic"}, {"measurement": "Inhalation 4 hour ALC", "setting": "rats [5]", "result": "Inhalation 4 hour ALC: >5.0 mg/L in rats"}, {"measurement": "Changes in clinical pathology, pathology, or in-life measurements", "setting": "rats [6]", "result": "no toxicologically important changes"}, {"measurement": "NOEL", "setting": "rats [6]", "result": 1800, "unit": "mg/m3"}, {"measurement": "pH", "setting": "[7]", "result": "pH: 4.5-7 in water. Color: Colorless."}, {"measurement": "Oral LD50", "setting": "rats [8]", "result": "15,000 mg/kg"}, {"measurement": "Skin irritation", "setting": "[9]", "result": "slight skin irritant"}, {"measurement": "Mutagenicity", "setting": "bacterial cells", "result": "not mutagenic"}, {"measurement": "Chromosome aberrations, repeat study", "setting": "mammalian cells [10]; 1,3-propanediol manufactured by DuPont", "result": "negative for all test conditions"}, {"measurement": "Chromosome aberrations", "setting": "mammalian cells [10]; under certain conditions", "result": "An increase in chromosome aberrations was observed"}, {"measurement": "Eye irritation", "setting": "[11]", "result": "not an eye irritant"}, {"measurement": "Toxicity to the fetus", "setting": "[12]", "result": "not uniquely toxic to the fetus"}, {"measurement": "Dermal LD50", "setting": "rabbits", "result": "> 20,000 mg/kg"}]}
